Data on four compounds can be found in patent US4335249A, “Herbicidal diphenyl ethers, sulfides, sulfoxides and sulfones” (Rohm and Haas Company, priority 1976, dated 1982).

Common to all, as to format: in vivo
Assay [1] relates to morningglory (Ipomoca spp.). Put plainly: Postemergence herbicidal activity, morningglory. The note with it: Ipomoea, post-emergence, 336 h; for pest or weed control at 4483.4 g/ha: 4 lb/A. The procedure, abridged: (§1)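 Seeds were sown in soil flats and sprayed either right after planting (preemergence) or two weeks after germination (postemergence). Compound in acetone diluted with water was applied at a 50 gal/acre carrier volume at rates in lb/A. About two weeks later, average percent control was scored as percent of plants killed.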

For assay [2], the system named is wild oats (Avena fatua). Put plainly: Preemergence herbicidal activity, wild oats. The note with it: Avena fatua, pre-emergence, 336 h, Pre, read-out: % control, Wild oat; for pest or weed control at 4483.4 g/ha: 4 lb/A. Summed up:
as §1

The subject of assay [3] is foxtail (Setaria spp.). Put plainly: Preemergence herbicidal activity, foxtail. The note with it: Setaria, pre-emergence, 336 h, Pre; for pest or weed control at 4483.4 g/ha: 4 lb/A. The procedure, abridged: as §1
Assay [4] relates to foxtail (Setaria spp.). Put plainly: Postemergence herbicidal activity, foxtail. The note with it: Setaria, post-emergence, 336 h, Post; for pest or weed control at 4483.4 g/ha: 4 lb/A. Summed up:
as §1

Assay [5] deals with velvetleaf (Abutilon theophrasti). Put plainly: Preemergence herbicidal activity, velvetleaf. The note with it: Abutilon theophrasti, pre-emergence, 336 h, Pre; for pest or weed control at 4483.4 g/ha: 4 lb/A. The procedure, abridged: as §1
Assay [6] concerns cocklebur (Xanthium pensylvanicum). Put plainly: Postemergence herbicidal activity, cocklebur. The note with it: Xanthium strumarium, post-emergence, 336 h; for pest or weed control at 4483.4 g/ha: 4 lb/A. Summed up: as §1
The subject of assay [7] is downybrome (Bromus tectorum). The experiment in a line: Postemergence herbicidal activity, downybrome. The note with it: Bromus tectorum, post-emergence, 336 h, Post; for pest or weed control at 4483.4 g/ha: 4 lb/A. Summed up:
as §1

Assay [8] has as its system velvetleaf (Abutilon theophrasti). The experiment in a line: Postemergence herbicidal activity, velvetleaf. The note with it: Abutilon theophrasti, post-emergence, 336 h; for pest or weed control at 4483.4 g/ha: 4 lb/A. The procedure, abridged:
(§2)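 Acetone solution diluted w/ water; spray, carrier 50 gal/acre equivalent; rate in lb/A. Pre: flats sprayed right after sowing. Post: sprayed 2 wk after germination. Weed control scored.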

Assay [9] has as its system wild oats (Avena fatua). The experiment in a line: Postemergence herbicidal activity, wild oats. The note with it: Avena fatua, post-emergence, 336 h, Post, read-out: % control, Wild oat; for pest or weed control at 4483.4 g/ha: 4 lb/A. Summed up: as §1
Assay [10] relates to downybrome (Bromus tectorum). Put plainly: Preemergence herbicidal activity, downybrome. The note with it: Bromus tectorum, pre-emergence, 336 h, Pre; for pest or weed control at 4483.4 g/ha: 4 lb/A. The procedure, abridged: as §1
Assay [11] relates to marigold (Tagetes spp.). The experiment in a line: Preemergence herbicidal activity, marigold. The note with it: pre-emergence, 336 h; for pest or weed control at 4483.4 g/ha: 4 lb/A. Summed up: as §1
Assay [12] has as its system morningglory (Ipomoca spp.). Put plainly: Preemergence herbicidal activity, morningglory. The note with it: Ipomoea, pre-emergence, 336 h; for pest or weed control at 4483.4 g/ha: 4 lb/A. The procedure, abridged:
as §1

Assay [13] relates to tomato (Lycopersicon esculentum). The experiment in a line: Preemergence herbicidal activity, tomato. The note with it: Solanum lycopersicum, pre-emergence, 336 h, Pre; for pest or weed control at 4483.4 g/ha: 4 lb/A. Summed up:
as §1

In assay [14] the test system is barnyardgrass (Echinochloa crusgalli). Put plainly: Postemergence herbicidal activity, barnyardgrass. The note with it: Echinochloa crus-galli, post-emergence, 336 h, Post; for pest or weed control at 4483.4 g/ha: 4 lb/A. The procedure, abridged:
as §2

Assay [15] has as its system tomato (Lycopersicon esculentum). Put plainly: Postemergence herbicidal activity, tomato. The note with it: Solanum lycopersicum, post-emergence, 336 h, Post; for pest or weed control at 4483.4 g/ha: 4 lb/A. The procedure, abridged: as §1
Assay [16] concerns marigold (Tagetes spp.). The experiment in a line: Postemergence herbicidal activity, marigold. The note with it: post-emergence, 336 h; for pest or weed control at 4483.4 g/ha: 4 lb/A. Summed up:
as §1

Assay [17] concerns barnyardgrass (Echinochloa crusgalli). The experiment in a line: Preemergence herbicidal activity, barnyardgrass. The note with it: Echinochloa crus-galli, pre-emergence, 336 h, Pre; for pest or weed control at 4483.4 g/ha: 4 lb/A. Summed up:
as §2

The subject of assay [18] is cocklebur (Xanthium pensylvanicum). The experiment in a line: Preemergence herbicidal activity, cocklebur. The note with it: Xanthium strumarium, pre-emergence, 336 h; for pest or weed control at 4483.4 g/ha: 4 lb/A. Summed up: as §1
Assay [19] has as its system yellow nutsedge (Cyperus esculentus). The experiment in a line: Postemergence herbicidal activity, yellow nutsedge. The note with it: Cyperus, post-emergence, 336 h; for pest or weed control at 4483.4 g/ha: 4 lb/A. The procedure, abridged:
as §1

Assay [20] shares this test system. Put plainly: Preemergence herbicidal activity, yellow nutsedge. The note with it: Cyperus, pre-emergence, 336 h; for pest or weed control at 4483.4 g/ha: 4 lb/A. Summed up: as §1

Turning to `CCOC(=O)C(C)Oc1ccc(Sc2ccc(C(F)(F)F)cc2[N+](=O)[O-])cc1` (centres unmarked) [Example 48, Ethyl 2-[4-(2-nitro-4-trifluoromethylphenylthio)phenoxy] propionate], the pest or weed control at 2241.7 g/ha was determined as 0% in assay [1] (2 lb/A); 0% with wild oats (Avena fatua) [2] (2 lb/A); 95% in the assay on foxtail (Setaria spp.) [3] (2 lb/A); 20% with foxtail (Setaria spp.) [4] (2 lb/A); 0% in assay [5] (2 lb/A); 0% in assay [6] (2 lb/A). Moreover, the pest or weed control at 2241.7 g/ha in assay [7] (2 lb/A) turned out to be 0%; in assay [8] (2 lb/A), 0%; in the assay with wild oats (Avena fatua) [9] (2 lb/A), 80%; in assay [10] (2 lb/A), 30%; in the assay with marigold (Tagetes spp.) [11] (2 lb/A) it was 0%; in assay [12] (2 lb/A) it was 0%. Also, the pest or weed control at 2241.7 g/ha is 0% in assay [13] (2 lb/A); 60% in [14] (2 lb/A); 0% in assay [15] (2 lb/A); 0% in the assay with marigold (Tagetes spp.) [16] (2 lb/A); 95% in assay [17] (2 lb/A); 0% in assay [18] (2 lb/A). Also, the pest or weed control at 2241.7 g/ha in [19] (2 lb/A) and in [20] (2 lb/A) was 0% each time.
As to `CCOC(=O)C(C)Oc1ccc([S+]([O-])c2ccccc2C(F)(F)F)cc1` (centres unmarked) [Example 49, Ethyl 2-[4-(2-trifluoromethylphenylsulfinyl)phenoxy]propionate], the pest or weed control at 4483.4 g/ha came to 0% in assay [1]; 0% in the assay on wild oats (Avena fatua) [2]; 0% in the assay on foxtail (Setaria spp.) [3]; 20% in the assay on foxtail (Setaria spp.) [4]; 0% in assay [5]; 0% in [6]. Further, the pest or weed control at 4483.4 g/ha was found to be 0% in assay [7]; 20% in [8]; 30% in the assay on wild oats (Avena fatua) [9]; 0% in assay [10]; 0% with marigold (Tagetes spp.) [11]; 0% in assay [12]. In addition, the pest or weed control at 4483.4 g/ha in assay [13] worked out at 0%; in assay [14] it was 20%; in [15], 20%; with marigold (Tagetes spp.) [16], 0%; in assay [17], 0%; in assay [18], 0%. Also, the pest or weed control at 4483.4 g/ha in assay [19] and in assay [20] was 0% in each case.
With `CCOC(=O)C(C)Oc1ccc([S+]([O-])c2cccc(C(F)(F)F)c2)cc1` (centres unmarked) [Example 50], the pest or weed control at 4483.4 g/ha (in assay [1]; in the assay with wild oats (Avena fatua) [2]; in the assay with foxtail (Setaria spp.) [3]; with foxtail (Setaria spp.) [4]; in assay [5]; in [6]) was 0% each time. Besides, the pest or weed control at 4483.4 g/ha in assay [7] came out at 0%; in assay [8], 0%; in the assay on wild oats (Avena fatua) [9], 20%; in [10] it was 0%; with marigold (Tagetes spp.) [11], 0%; in assay [12] it was 0%. In addition, the pest or weed control at 4483.4 g/ha in [13] was found to be 0%; in assay [14], 20%; in assay [15], 20%; with marigold (Tagetes spp.) [16], 0%; in assay [17], 0%; in assay [18], 0%. Besides, the pest or weed control at 4483.4 g/ha in [19] and in [20] was 0% throughout.
As to `CCOC(=O)C(C)Oc1ccc([S+]([O-])c2ccc(C(F)(F)F)cc2)cc1` (centres unmarked) [Example 51], the pest or weed control at 4483.4 g/ha (in assay [1]; with wild oats (Avena fatua) [2]; with foxtail (Setaria spp.) [3]; with foxtail (Setaria spp.) [4]; in [5]; in assay [6]) was 0% in each case. Further, the pest or weed control at 4483.4 g/ha in [7] came out at 0%; in assay [8] it was 0%; in the assay on wild oats (Avena fatua) [9] it was 20%; in [10], 0%; in the assay on marigold (Tagetes spp.) [11], 0%; in assay [12], 0%. The pest or weed control at 4483.4 g/ha came to 0% in assay [13]; 20% in assay [14]; 0% in assay [15]; 0% with marigold (Tagetes spp.) [16]; 0% in assay [17]; 0% in [18]. For the same compound, the pest or weed control at 4483.4 g/ha in assay [19] and in assay [20] was 0% throughout.
